For data set [1], the target named is hQC (Homo sapiens, UniProt Q16769). Put plainly: Fluorometric assay of glutaminyl cyclase (QC) inhibition, H-Gln-βNA or H-Gln-AMC substrate. The format is biochemical. The gist of the method:
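Fluorometric coupled assays at 30° C in Tris/HCl pH 8.0 with EDTA and pyroglutamyl aminopeptidase used either 0.2 mM H-Gln-βNA (320/410 nm) or H-Gln-AMC (380/460 nm), started by QC. Screening used 4 mM inhibitor at substrate 1 KM. Ki came from fitting progress curves to competitive inhibition.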

[2] abbreviates: compound from preparative synthesis, purified by chromatography, fluorescent assay, read-out: IC50 hQC.

Structures are written as SMILES. pIC50: −log10 of the molar value. Read-outs that look alike come from different tables or passages of the source.

hQC, sequence (Q16769 29-361): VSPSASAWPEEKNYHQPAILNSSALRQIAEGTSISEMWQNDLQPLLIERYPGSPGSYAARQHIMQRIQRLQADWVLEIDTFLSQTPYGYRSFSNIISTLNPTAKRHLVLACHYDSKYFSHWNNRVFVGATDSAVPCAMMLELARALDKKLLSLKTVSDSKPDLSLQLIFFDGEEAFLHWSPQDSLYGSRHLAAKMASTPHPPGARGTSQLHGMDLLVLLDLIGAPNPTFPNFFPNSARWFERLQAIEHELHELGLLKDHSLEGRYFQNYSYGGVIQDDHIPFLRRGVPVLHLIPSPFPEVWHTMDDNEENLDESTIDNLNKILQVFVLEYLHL

A word on the pIC50: it is −log10 of the IC50, conventionally taken in molar units. One may read the melting point as the temperature, or range, at which the solid turns liquid. In turn, `O=C1N/C(=N\C2CCCCC2)C(c2ccc(Br)cc2)N1c1ccc2nc[nH]c2c1` (stereo not shown) [Compound 199, 1-(1H-Benzoimidazol-5-yl)-5-(4-bromo-phenyl)-4-(cyclohexylimino)-imidazolidin-2-one] showed a melting point of 205 °C. Besides, the pIC50 in data set [1] (setting [2]) is 7.63. The pIC50 in data set [1] (read-out: IC50) is 8.40.

In turn, `O=C1N/C(=N/Cc2ccccc2)C(c2ccc(Br)cc2)N1c1ccc2[nH]cnc2c1` (stereo not shown) [Compound 216, 1-(1H-Benzoimidazol-5-yl)-4-benzylimino-5-(4-bromo-phenyl)-imidazolidin-2-one] showed a melting point of 244 °C. The pIC50 in data set [1] (setting [2]) is 7.66. Besides, the pIC50 in data set [1] (read-out: IC50) is 8.40.

The molecule `O=C1N/C(=N\C2CCCC2)C(c2ccc3[nH]ccc3c2)N1c1ccc2[nH]cnc2c1` (stereo not shown) [Compound 226, 1-(1H-Benzoimidazol-5-yl)-4-(cyclopentylimino)-5-(1H-indol-5-yl)-imidazolidin-2-one] registered a melting point of 210 °C. In addition, in data set [1] (setting [2]), the negative logarithm of the IC50 (pIC50) is 7.46. The pIC50 in data set [1] (read-out: IC50) is 8.40.

On to `CC(CC1/C(=N/C2CCCc3ccccc32)NC(=O)N1c1ccc2[nH]cnc2c1)CC(C)(C)C` (stereo not shown) [Compound 197, 1-(1H-Benzoimidazol-5-yl)-4-1,2,3,4-tetrahydro-naphthalen-1-ylimino-5-(2,4,4-trimethyl-pentyl)-imidazolidin-2-one], for which, in data set [1] (read-out: IC50), the pIC50 was 5.03.

Turning to `CCCCC1/C(=N\c2ccc3c(c2)OCCO3)NC(=O)N1CCCn1ccnc1` (stereo not shown) [Compound 35, 5-Butyl-4-2,3-dihydro-benzo1,4dioxin-6-ylimino-1-(3-imidazol-1-yl-propyl)-imidazolidin-2-one], in data set [1] (read-out: IC50), the pIC50 was 5.24.

With `Cc1ccc2c(C3/C(=N\CCCc4ccccc4)NC(=O)N3c3ccc4[nH]cnc4c3)c[nH]c2c1` (stereo not shown) [Compound 120, 1-(1H-Benzoimidazol-5-yl)-5-(6-methyl-1H-indol-3-yl)-4-3-phenyl-propylimino-imidazolidin-2-one], in data set [1] (read-out: IC50), the pIC50 was 5.89.

For `O=C1N/C(=N/CCN2CCOCC2)C(c2ccc3ccccc3c2)N1c1ccc2[nH]cnc2c1` (stereo not shown) [Compound 233, 1-(1H-Benzoimidazol-5-yl)-4-2-morpholin-4-yl-ethylimino-5-naphthalen-2-yl-imidazolidin-2-one], the pIC50 in data set [1] (read-out: IC50) was 5.66.

On to `CCCC/N=C1\NC(=O)N(CCCn2ccnc2)C1c1cccc(F)c1F` (stereo not shown) [Compound 36, 4-Butylimino-5-(2,3-difluoro-phenyl)-1-(3-imidazol-1-ylpropyl)-imidazolidin-2-one], for which the pIC50 in data set [1] (read-out: IC50) is 5.17.

As to `S=C1NC(=NCCc2cccs2)C(c2cc3c(cc2Br)OCO3)N1c1ccc2nc[nH]c2c1` (stereo not shown) [Compound 137, 1-(3H-Benzoimidazol-5-yl)-5-(6-bromo-benzo1,3dioxol-5-yl)-4-2-thiophen-2-yl-ethylimino-imidazolidin-2-thione], the pIC50 in data set [1] (read-out: IC50) was 5.40.

`O=C(C/N=C1/NC(=O)N(c2ccc3[nH]cnc3c2)C1C1=CCCCC1)N1CCSCC1` (stereo not shown) [Compound 265, 1-(1H-Benzoimidazol-5-yl)-5-cyclohex-1-enyl-4-2-oxo-2-thiomorpholin-4-yl-ethylimino-imidazolidin-2-one]: the pIC50 in data set [1] (read-out: IC50) is 5.07.

The record behind these values is US20080221086A1, “Novel Inhibitors of Glutaminyl Cyclase” (PROBIODRUG AG, priority 2006, published 2008).
